Results as given in patent US6440723B1, “Arrays with modified oligonucleotide and polynucleotide compositions” (Oligos Etc. Inc., priority 1998, dated 2002).

What was measured:
[1] = system: 2′-OMe RNA oligo 150-mer (SEQ ID NO:3); test: Fluorescence signal of 12-mer probes bound to captured 150-mer on streptavidin plate; type: binding; settings: individual probes, fluorescence (Oregon Green 488)
From the text: A 2′-OMe RNA oligo 150-mer (SEQ ID NO:3) was captured using a 15-mer 2′-OMe oligo tethered through biotin-streptavidin onto a white 96-well plate. Observations were taken of individual 2′-OMe 12-mers complementary to portions of the 150-mer labeled on the 5′-end with Oregon Green 488. Once the signal levels were obtained for single sequences, various combinations of the 12-mers were used to determine whether the fluorescence signal from the probes was additive. The sequences of these probes were chosen at 12-base steps through the sequence of the 150-mer.

[2] = system: Regular RNA 20-mer oligonucleotide SEQ ID NO:1; test: Duplex melting temperature (Tm), SEQ ID NO:1 strand as Regular RNA; type: binding; settings: SEQ ID NO:1 strand Regular RNA; four μM each strand, 50 mM NaCl, 10 mM PO4 buffer, pH 7.4
Protocol: (§1) The stability of duplexes having 2′-substituted nucleotides versus duplexes without such modification was tested by examining the Tm of these complexes. four μM each of 20-mer oligonucleotide (5′-ggt ggt tcc tcc tca gtc gg-3′; SEQ ID NO:1) and its complement (5′-ccg act gag aag gaa cca cc-3′; SEQ ID NO:2) were bound in a solution of 50 mM NaCl, 10 mM PO4 buffer, pH 7.4. Each of the nucleotides of the oligonucleotide had the same 2′ group. Following binding, the melting temperature was determined as described (See L. L. Cummins et al., Nucleic Acids Research 23:2019-2024 (1995)).

Avidin = Avidin (Gallus gallus, UniProt P02701); settings: cited from earlier work
[3] = system: Regular DNA 20-mer oligonucleotide SEQ ID NO:1; test: Duplex melting temperature (Tm), SEQ ID NO:1 strand as Regular DNA; type: binding; settings: SEQ ID NO:1 strand Regular DNA; four μM each strand, 50 mM NaCl, 10 mM PO4 buffer, pH 7.4
Protocol: as §1

folate binding proteins = settings: cited from earlier work
[4] = system: polyclonal antibodies to cAMP; settings: cited from earlier work

Chain of Avidin (P02701 25-152): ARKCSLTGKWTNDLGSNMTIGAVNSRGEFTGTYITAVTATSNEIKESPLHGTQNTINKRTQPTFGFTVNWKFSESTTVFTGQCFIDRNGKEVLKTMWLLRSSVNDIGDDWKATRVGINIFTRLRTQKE

5′-CCACCUCACGAA-butanol-3′ [Probe (2)] showed a Signal ([1]; listed as (2)) of 297.

5′-UGUUCACCAUGC-butanol-3′ [Probe (8)] gave a Signal ([1]; listed as (8)) of 133.

Work on 5′-GUGCGGGUGAUG-butanol-3′ [Probe (4)] yielded a Signal [1] of 115.

Work on 5′-GCCGUACUGUAG-butanol-3′ [Probe (3)] yielded a Signal [1] of 256.

Work on “p-ethoxy 2′-O-methyl: 20-mer SEQ ID NO:2 (5′-ccg act gag aag gaa cca cc-3′) as p-ethoxy 2′-O-methyl” yielded a Tm [2] of 71 °C.

In the case of `COC(=O)CCCCC1SCC2NC(=O)N(C(=O)OC)C21` (centres unmarked) [3′-N-methoxy-carbonylbiotin methyl ester], the “Binding affinity with Avidin” value (Avidin) is listed as 10^9 M^−1.

In the case of `COC(=O)CCCCC1SCC2C1NC(=O)N2C(=O)OC` (centres unmarked) [1′-N-methoxy-carbonylbiotin methyl ester], the “Binding affinity with Avidin” value (Avidin) is listed as 10^7 M^−1.

In the case of `O=C(O)CCCC[C@@H]1SC[C@@H]2NC(=O)N[C@@H]21` [Biotin], the “Binding affinity with Avidin” value (Avidin) is listed as 10^15 M^−1.

In the case of “p-ethoxy RNA: 20-mer SEQ ID NO:2 (5′-ccg act gag aag gaa cca cc-3′) as p-ethoxy RNA”, the Tm [2] is reported as 56 °C.

In the case of `O=C(O)CCCCC1SCC2NC(=S)NC21` (centres unmarked) [2-thiobiotin], the “Binding affinity with Avidin” value (Avidin) is listed as 10^13 M^−1.

“p-ethoxy DNA: 20-mer SEQ ID NO:2 (5′-ccg act gag aag gaa cca cc-3′) as p-ethoxy DNA” gave a Tm [3] of 55 °C.

In the case of `C[C@@H]1NC(=O)N[C@@H]1CCCCCC(=O)O` [Dethiobiotin], the “Binding affinity with Avidin” value (Avidin) is given as 10^13 M^−1.

For “2′-O-methyl: 20-mer SEQ ID NO:2 (5′-ccg act gag aag gaa cca cc-3′), each nucleotide 2′-O-methyl”, the Tm [2] was 79 °C.

Molecule “Regular DNA: 20-mer SEQ ID NO:2 (5′-ccg act gag aag gaa cca cc-3′) as regular DNA [reference compound]” has a Tm [2] of 66 °C.

Work on 5′-AUAGGGAAUCCU-butanol-3′ [Probe (6)] yielded a Signal [1] of 810.

Work on 5′-GGGGCCGUACUG-butanol-3′ [Probe (10)] yielded a Signal [1] of 46.

For tetrahydrofolate, the Ka (folate binding proteins) is listed as 3e+11 M⁻¹.

For `Nc1ncnc2c1ncn2[C@@H]1O[C@@H]2COP(=O)(O)O[C@H]2[C@H]1O` [cAMP, cyclic AMP], the “Ka of polyclonal antibodies to cAMP” value [4] is listed as 10^10 to 10^12 M^−1.

5′-UGUUCACCAUGC-butanol-3′ [Probe (1)] showed a Signal ([1]; listed as (1)) of 124.

In the case of `N=C1N[C@H]2[C@H](CS[C@H]2CCCCC(=O)O)N1` [Iminobiotin], the “Binding affinity with Avidin” value (Avidin) is listed as 10^11 M^−1.

5′-UGCAGUACAUGU-butanol-3′ [Probe (7)] gave a Signal [1] of 466.

In the case of 5′-CGAGUCCUGCAC-butanol-3′ [Probe (5)], the Signal [1] is reported as 85.

5′-CCACCUCACGAA-butanol-3′ [Probe (9)] showed a Signal ([1]; listed as (9)) of 514.
